According to the supplement of paper PMC10307832:

Tests used:
Test in all cases: relative viability (nuclei count vs DMSO), 5 days (fraction); higher = more cells survive
SW 1573 = test system: SW 1573
How it was run: (§1)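 After 5 days of treatment, lung cancer cells in 1536-well plates were fixed and stained in a single step (final 0.05% Triton X-100, 1% formaldehyde, 1 ug/ml Hoechst) and their nuclei counted on 4× images. Treatment had been applied by pin tool the day after seeding as one drug alone or as a fixed anchor-drug dose with five library-drug doses (not always all listed) in √10 steps. Relative viability is the nuclei count of treated wells divided by that of vehicle wells, and values are medians of duplicate plates.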

ABC-1 = test system: ABC-1
How it was run: as §1

ChaGo-K-1 = test system: ChaGo-K-1
How it was run: as §1

HCC-44 = test system: HCC-44
How it was run: as §1

NCI-H2228 = test system: NCI-H2228
How it was run: as §1

NCI-H2405 = test system: NCI-H2405
How it was run: as §1

HCC-366 = test system: HCC-366
How it was run: as §1

NCI-H2347 = test system: NCI-H2347
How it was run: as §1

NCI-H3122 = test system: NCI-H3122
How it was run: as §1

HCC-827 = test system: HCC-827
How it was run: as §1

HCC-15 = test system: HCC-15
How it was run: as §1

NCI-H1944 = test system: NCI-H1944
How it was run: as §1

NCI-H1355 = test system: NCI-H1355
How it was run: as §1

NCI-H2085 = test system: NCI-H2085
How it was run: as §1

COR-L23 = test system: COR-L23
How it was run: as §1

PC-14 = test system: PC-14
How it was run: as §1

EPLC-272H = test system: EPLC-272H
How it was run: as §1

NCI-H2023 = test system: NCI-H2023
How it was run: as §1

LCLC-103H = test system: LCLC-103H
How it was run: as §1

NCI-H1734 = test system: NCI-H1734
How it was run: as §1

Cc1cn(-c2cc(NC(=O)c3ccc(C)c(Nc4nccc(-c5cccnc5)n4)c3)cc(C(F)(F)F)c2)cn1 [Nilotinib] + C[C@@H](Oc1cc(-c2cnn(C3CCNCC3)c2)cnc1N)c1c(Cl)ccc(F)c1Cl [Crizotinib] (partner 1 µM)
relative viability (SW 1573; first compound 0.001 µM): 0.798
relative viability (SW 1573; first compound 0.003162 µM): 0.882
relative viability (SW 1573; first compound 0.01 µM): 0.946
relative viability (SW 1573; first compound 0.03162 µM): 0.826
relative viability (SW 1573; first compound 0.1 µM): 0.823
relative viability (ABC-1; first compound 0.001 µM): 1.16
relative viability (ABC-1; first compound 0.003162 µM): 1.03
relative viability (ABC-1; first compound 0.01 µM): 1.5
relative viability (ABC-1; first compound 0.03162 µM): 0.913
relative viability (ABC-1; first compound 0.1 µM): 1.34
relative viability (ChaGo-K-1; first compound 0.001 µM): 1.1
relative viability (ChaGo-K-1; first compound 0.003162 µM): 1.08
relative viability (ChaGo-K-1; first compound 0.01 µM): 1.27
relative viability (ChaGo-K-1; first compound 0.03162 µM): 0.674
relative viability (ChaGo-K-1; first compound 0.1 µM): 1.08
relative viability (HCC-44; first compound 0.001 µM): 0.799
relative viability (HCC-44; first compound 0.003162 µM): 0.978
relative viability (HCC-44; first compound 0.01 µM): 1.01
relative viability (HCC-44; first compound 0.03162 µM): 0.717
relative viability (HCC-44; first compound 0.1 µM): 0.754
relative viability (NCI-H2228; first compound 0.001 µM): 0.53
relative viability (NCI-H2228; first compound 0.003162 µM): 0.418
relative viability (NCI-H2228; first compound 0.01 µM): 0.606
relative viability (NCI-H2228; first compound 0.03162 µM): 0.461
relative viability (NCI-H2228; first compound 0.1 µM): 0.294
relative viability (NCI-H2405; first compound 0.001 µM): 0.854
relative viability (NCI-H2405; first compound 0.003162 µM): 0.746
relative viability (NCI-H2405; first compound 0.01 µM): 0.84
relative viability (NCI-H2405; first compound 0.03162 µM): 0.747
relative viability (NCI-H2405; first compound 0.1 µM): 0.857
relative viability (HCC-366; first compound 0.001 µM): 0.484
relative viability (HCC-366; first compound 0.003162 µM): 0.627
relative viability (HCC-366; first compound 0.01 µM): 1.38
relative viability (HCC-366; first compound 0.03162 µM): 0.389
relative viability (HCC-366; first compound 0.1 µM): 0.609
relative viability (NCI-H2347; first compound 0.001 µM): 0.698
relative viability (NCI-H2347; first compound 0.003162 µM): 0.731
relative viability (NCI-H2347; first compound 0.01 µM): 0.686
relative viability (NCI-H2347; first compound 0.03162 µM): 0.629
relative viability (NCI-H2347; first compound 0.1 µM): 0.853
relative viability (NCI-H3122; first compound 0.001 µM): 0.298
relative viability (NCI-H3122; first compound 0.003162 µM): 0.314
relative viability (NCI-H3122; first compound 0.01 µM): 0.33
relative viability (NCI-H3122; first compound 0.03162 µM): 0.3
relative viability (NCI-H3122; first compound 0.1 µM): 0.328
relative viability (HCC-827; first compound 0.001 µM): 0.936
relative viability (HCC-827; first compound 0.003162 µM): 0.954
relative viability (HCC-827; first compound 0.01 µM): 0.893
relative viability (HCC-827; first compound 0.1 µM): 0.91
relative viability (HCC-15; first compound 0.001 µM): 0.723
relative viability (HCC-15; first compound 0.003162 µM): 0.96
relative viability (HCC-15; first compound 0.01 µM): 1.1
relative viability (HCC-15; first compound 0.03162 µM): 0.58
relative viability (HCC-15; first compound 0.1 µM): 0.687
relative viability (NCI-H1944; first compound 0.001 µM): 1.18
relative viability (NCI-H1944; first compound 0.003162 µM): 1.24
relative viability (NCI-H1944; first compound 0.01 µM): 1.21
relative viability (NCI-H1944; first compound 0.03162 µM): 1.16
relative viability (NCI-H1944; first compound 0.1 µM): 0.939
relative viability (NCI-H1355; first compound 0.001 µM): 1.05
relative viability (NCI-H1355; first compound 0.003162 µM): 1.15
relative viability (NCI-H1355; first compound 0.01 µM): 1.38
relative viability (NCI-H1355; first compound 0.03162 µM): 0.909
relative viability (NCI-H1355; first compound 0.1 µM): 1.09
relative viability (NCI-H2085; first compound 0.001 µM): 0.982
relative viability (NCI-H2085; first compound 0.003162 µM): 0.895
relative viability (NCI-H2085; first compound 0.01 µM): 0.971
relative viability (NCI-H2085; first compound 0.03162 µM): 0.721
relative viability (NCI-H2085; first compound 0.1 µM): 0.884
relative viability (COR-L23; first compound 0.001 µM): 0.601
relative viability (COR-L23; first compound 0.003162 µM): 0.625
relative viability (COR-L23; first compound 0.01 µM): 0.848
relative viability (COR-L23; first compound 0.03162 µM): 0.465
relative viability (COR-L23; first compound 0.1 µM): 0.625
relative viability (PC-14; first compound 0.001 µM): 0.871
relative viability (PC-14; first compound 0.003162 µM): 0.941
relative viability (PC-14; first compound 0.01 µM): 1.11
relative viability (PC-14; first compound 0.03162 µM): 0.861
relative viability (PC-14; first compound 0.1 µM): 0.945
relative viability (EPLC-272H; first compound 0.001 µM): 0.942
relative viability (EPLC-272H; first compound 0.003162 µM): 0.935
relative viability (EPLC-272H; first compound 0.01 µM): 1.01
relative viability (EPLC-272H; first compound 0.03162 µM): 0.831
relative viability (EPLC-272H; first compound 0.1 µM): 0.917
relative viability (NCI-H2023; first compound 0.001 µM): 0.659
relative viability (NCI-H2023; first compound 0.003162 µM): 0.683
relative viability (NCI-H2023; first compound 0.01 µM): 0.852
relative viability (NCI-H2023; first compound 0.03162 µM): 0.506
relative viability (NCI-H2023; first compound 0.1 µM): 0.569
relative viability (LCLC-103H; first compound 0.003162 µM): 1.07
relative viability (LCLC-103H; first compound 0.03162 µM): 0.945
relative viability (LCLC-103H; first compound 0.1 µM): 1.08
relative viability (NCI-H1734; first compound 0.001 µM): 0.68
relative viability (NCI-H1734; first compound 0.003162 µM): 0.659
relative viability (NCI-H1734; first compound 0.01 µM): 0.717
relative viability (NCI-H1734; first compound 0.03162 µM): 0.433
relative viability (NCI-H1734; first compound 0.1 µM): 0.475
